Results published in ChEMBL document CHEMBL1201862, “PubChem BioAssay data set” (2004).
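Dose response: 5 concentrations. Exposure: 48 h. Format: 96-well plates. Endpoint: linear interpolation; highest concentration if not reached. The concentration for 50% growth inhibition is given as GI50.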 Active and inactive are the calls of the source. Rule as the data show it: active = GI50 up to about 1.1 µM and inactive = higher.

Experiments:
Experiment in all cases: inhibition of tumour cell growth, NCI panel, 48 h
[1] = system: UACC-62
[2] = system: HL-60
[3] = system: ACHN
[4] = system: Hs-578T
[5] = system: K562
[6] = system: MDA-MB-231
[7] = system: NCI-H522
[8] = system: CAKI-1
[9] = system: KM12
[10] = system: SF-539
[11] = system: HOP-62
[12] = system: SF-295
[13] = system: T47D
[14] = system: UO-31
[15] = system: SN12C
[16] = system: UACC-257
[17] = system: A498
[18] = system: DU-145
[19] = system: OVCAR-5
[20] = system: PC-3

Measured: GI50

CC1CCC2(O)C3(C)CC4(O)OC2(C1O)C1(O)C3(O)C(OC(=O)c2ccc[nH]2)C(O)(C(C)C)C41C (stereo not given)
inactive: [1] > 100 µM | [2] > 65.8 µM | [3] > 100 µM | [4] > 100 µM | [5] > 20.9 µM | [6] > 100 µM | [7] > 100 µM | [8] > 100 µM | [9] > 100 µM | [10] > 100 µM | [11] > 100 µM | [12] > 100 µM | [13] > 100 µM | [14] > 100 µM | [15] > 100 µM | [16] > 100 µM | [17] > 100 µM | [18] > 100 µM | [19] > 100 µM | [20] > 100 µM

O=C(O)CCO/N=C1/C(=C2/C(=O)Nc3ccccc32)Nc2ccccc21
inactive: [1] 14.7 µM | [2] 23.7 µM | [3] 15.2 µM | [4] 21.1 µM | [5] 36.7 µM | [6] 37.4 µM | [7] 50.6 µM | [8] 4.97 µM | [9] 1.16 µM | [10] 38.3 µM | [11] 26.4 µM | [12] 35.1 µM | [13] 13.3 µM | [14] 12 µM | [15] 23.7 µM | [16] 39.5 µM | [17] 5.6 µM | [18] 17.2 µM | [19] 40.9 µM | [20] 25.4 µM
